Targets include Motilin receptor (Homo sapiens, UniProt O43193); Adenosine receptor A2a (Homo sapiens, UniProt P29274); Melanocortin receptor 3 (Homo sapiens, UniProt P41968).
The target of assay [1] is T1, Amine oxidase [flavin-containing] A (Homo sapiens, UniProt P21397).
T1 sequence (P21397 whole entry): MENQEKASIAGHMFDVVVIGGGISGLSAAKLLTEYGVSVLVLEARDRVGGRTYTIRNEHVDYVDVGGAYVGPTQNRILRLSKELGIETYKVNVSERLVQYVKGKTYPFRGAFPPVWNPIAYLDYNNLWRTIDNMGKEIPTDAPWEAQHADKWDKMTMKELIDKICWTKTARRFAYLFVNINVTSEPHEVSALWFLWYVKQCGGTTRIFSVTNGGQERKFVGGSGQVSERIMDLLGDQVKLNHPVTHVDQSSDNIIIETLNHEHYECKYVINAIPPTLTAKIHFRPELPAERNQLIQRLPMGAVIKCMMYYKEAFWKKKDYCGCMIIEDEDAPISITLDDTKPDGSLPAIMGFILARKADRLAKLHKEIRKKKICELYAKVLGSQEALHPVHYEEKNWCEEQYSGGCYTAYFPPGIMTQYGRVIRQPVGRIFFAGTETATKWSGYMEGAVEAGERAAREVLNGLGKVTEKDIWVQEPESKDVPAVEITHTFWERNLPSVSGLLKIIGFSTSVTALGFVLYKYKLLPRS
Type of assay: functional.

Assay [2] addresses Neuronal acetylcholine receptor subunit alpha-4 (Homo sapiens, UniProt P43681).
The next assay addresses T2, Glucocorticoid receptor (Homo sapiens, UniProt P04150).
T2 sequence (P04150 whole entry): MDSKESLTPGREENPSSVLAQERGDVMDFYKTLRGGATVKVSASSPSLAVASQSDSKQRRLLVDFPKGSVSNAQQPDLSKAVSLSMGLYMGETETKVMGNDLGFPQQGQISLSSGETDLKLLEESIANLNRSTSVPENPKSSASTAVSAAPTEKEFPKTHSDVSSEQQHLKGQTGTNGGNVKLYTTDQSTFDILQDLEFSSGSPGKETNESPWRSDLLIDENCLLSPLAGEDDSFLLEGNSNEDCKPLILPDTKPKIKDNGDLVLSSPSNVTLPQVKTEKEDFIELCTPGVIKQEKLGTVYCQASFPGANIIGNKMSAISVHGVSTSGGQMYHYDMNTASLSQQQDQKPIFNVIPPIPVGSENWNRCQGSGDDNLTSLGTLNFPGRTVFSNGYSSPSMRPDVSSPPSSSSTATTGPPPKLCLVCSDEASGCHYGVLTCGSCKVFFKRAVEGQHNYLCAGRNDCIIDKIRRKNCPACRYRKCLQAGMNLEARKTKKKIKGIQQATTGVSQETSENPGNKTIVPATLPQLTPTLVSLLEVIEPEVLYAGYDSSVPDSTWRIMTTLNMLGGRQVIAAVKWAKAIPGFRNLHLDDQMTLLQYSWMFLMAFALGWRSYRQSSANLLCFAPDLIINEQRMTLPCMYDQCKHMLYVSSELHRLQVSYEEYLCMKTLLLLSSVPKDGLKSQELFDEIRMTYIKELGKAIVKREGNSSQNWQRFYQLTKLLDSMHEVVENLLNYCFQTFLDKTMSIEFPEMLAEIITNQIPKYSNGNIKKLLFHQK

For another assay, the target named is T3, B2 bradykinin receptor (Homo sapiens, UniProt P30411).
T3 sequence (P30411 whole entry): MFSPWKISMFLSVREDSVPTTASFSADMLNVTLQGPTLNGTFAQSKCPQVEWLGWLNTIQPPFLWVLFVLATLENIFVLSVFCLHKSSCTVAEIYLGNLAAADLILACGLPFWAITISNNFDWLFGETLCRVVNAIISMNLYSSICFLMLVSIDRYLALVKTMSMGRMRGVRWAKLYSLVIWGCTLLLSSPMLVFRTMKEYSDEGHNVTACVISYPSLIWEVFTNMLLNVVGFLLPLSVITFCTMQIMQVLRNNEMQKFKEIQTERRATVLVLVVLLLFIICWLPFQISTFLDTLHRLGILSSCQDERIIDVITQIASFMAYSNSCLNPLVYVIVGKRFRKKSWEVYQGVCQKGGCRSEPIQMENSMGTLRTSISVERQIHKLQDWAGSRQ

For a further assay, the target named is T4, Endothelin-1 receptor (Homo sapiens, UniProt P25101).
T4 sequence (P25101 whole entry): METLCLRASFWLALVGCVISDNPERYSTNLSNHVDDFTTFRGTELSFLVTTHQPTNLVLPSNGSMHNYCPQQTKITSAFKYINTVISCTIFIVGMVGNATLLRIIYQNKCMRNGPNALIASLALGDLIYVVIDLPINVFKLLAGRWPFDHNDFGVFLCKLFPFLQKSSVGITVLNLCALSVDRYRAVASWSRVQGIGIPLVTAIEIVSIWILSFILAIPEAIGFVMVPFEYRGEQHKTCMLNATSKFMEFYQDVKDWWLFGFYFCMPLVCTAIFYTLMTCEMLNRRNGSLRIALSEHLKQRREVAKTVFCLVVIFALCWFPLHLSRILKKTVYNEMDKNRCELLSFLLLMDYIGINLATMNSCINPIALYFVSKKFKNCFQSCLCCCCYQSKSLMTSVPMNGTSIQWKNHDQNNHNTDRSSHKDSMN

Assay [3] addresses Beta-2 adrenergic receptor (Homo sapiens, UniProt P07550).
A further assay addresses T5, Thromboxane A2 receptor (Homo sapiens, UniProt P21731).
T5 sequence (P21731 whole entry): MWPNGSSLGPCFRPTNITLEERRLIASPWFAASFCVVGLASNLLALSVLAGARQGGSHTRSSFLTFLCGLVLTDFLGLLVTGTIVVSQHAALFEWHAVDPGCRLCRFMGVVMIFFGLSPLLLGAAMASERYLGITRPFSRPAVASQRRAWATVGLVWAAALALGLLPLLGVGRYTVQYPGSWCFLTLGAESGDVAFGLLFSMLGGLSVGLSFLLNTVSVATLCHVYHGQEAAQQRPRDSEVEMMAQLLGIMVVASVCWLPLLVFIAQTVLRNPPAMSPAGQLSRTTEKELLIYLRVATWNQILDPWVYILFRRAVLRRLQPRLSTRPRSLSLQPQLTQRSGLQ

Assay [4] has as its target Muscarinic acetylcholine receptor M3 (Homo sapiens, UniProt P20309).
Assay [5] concerns the target Delta-type opioid receptor (Homo sapiens, UniProt P41143).
For assay [6], the target named is 5-hydroxytryptamine receptor 2A (Homo sapiens, UniProt P28223). Type of assay: functional, cell-based.

Bounds are passed on as bounds.

This is an account of results in ChEMBL document CHEMBL5291721, “A preclinical secondary pharmacology resource illuminates target-adverse drug reaction associations of marketed drugs” (Nat Commun, 2023).

As a reminder, the AC50 is the concentration giving half of the maximal activity seen.
Further: assay procedure not described here.

Neuronal acetylcholine receptor subunit alpha-4, sequence (P43681 whole entry): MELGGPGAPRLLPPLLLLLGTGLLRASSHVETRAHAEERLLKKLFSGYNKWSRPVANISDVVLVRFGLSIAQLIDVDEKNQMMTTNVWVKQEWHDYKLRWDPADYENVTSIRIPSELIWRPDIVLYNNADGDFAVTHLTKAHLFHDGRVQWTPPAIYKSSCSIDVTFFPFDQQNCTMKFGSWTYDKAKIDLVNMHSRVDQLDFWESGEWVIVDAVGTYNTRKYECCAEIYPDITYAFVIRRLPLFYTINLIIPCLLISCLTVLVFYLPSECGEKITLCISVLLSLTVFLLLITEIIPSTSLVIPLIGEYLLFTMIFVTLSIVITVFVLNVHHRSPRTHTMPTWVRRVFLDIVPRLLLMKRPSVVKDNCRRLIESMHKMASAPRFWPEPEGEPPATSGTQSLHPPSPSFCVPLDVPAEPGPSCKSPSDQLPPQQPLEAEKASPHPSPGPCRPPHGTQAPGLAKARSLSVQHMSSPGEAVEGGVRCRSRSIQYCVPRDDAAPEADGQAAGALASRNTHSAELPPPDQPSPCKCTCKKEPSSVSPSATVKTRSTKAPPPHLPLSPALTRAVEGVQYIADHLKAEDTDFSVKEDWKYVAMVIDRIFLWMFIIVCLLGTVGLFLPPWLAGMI
Melanocortin receptor 3, sequence (P41968 whole entry): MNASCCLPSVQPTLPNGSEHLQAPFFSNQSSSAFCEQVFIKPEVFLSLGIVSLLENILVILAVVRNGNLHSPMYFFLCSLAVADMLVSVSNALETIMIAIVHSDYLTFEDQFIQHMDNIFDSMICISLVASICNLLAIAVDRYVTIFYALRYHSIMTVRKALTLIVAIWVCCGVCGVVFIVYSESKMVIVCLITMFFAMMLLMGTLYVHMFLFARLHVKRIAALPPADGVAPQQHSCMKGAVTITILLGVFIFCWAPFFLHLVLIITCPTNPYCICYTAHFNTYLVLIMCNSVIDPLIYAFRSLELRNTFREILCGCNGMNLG
Beta-2 adrenergic receptor, sequence (P07550 whole entry): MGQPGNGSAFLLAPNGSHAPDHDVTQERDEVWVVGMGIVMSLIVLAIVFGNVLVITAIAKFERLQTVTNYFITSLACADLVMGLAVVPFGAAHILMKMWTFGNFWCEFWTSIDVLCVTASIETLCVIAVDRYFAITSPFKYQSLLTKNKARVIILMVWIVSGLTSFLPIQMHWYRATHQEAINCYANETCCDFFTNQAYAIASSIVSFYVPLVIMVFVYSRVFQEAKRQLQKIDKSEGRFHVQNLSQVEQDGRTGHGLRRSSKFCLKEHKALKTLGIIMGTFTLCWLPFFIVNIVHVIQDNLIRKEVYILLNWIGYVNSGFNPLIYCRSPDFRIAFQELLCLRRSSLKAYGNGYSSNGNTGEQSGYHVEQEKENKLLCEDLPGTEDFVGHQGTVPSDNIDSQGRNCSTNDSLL
Adenosine receptor A2a, sequence (P29274 whole entry): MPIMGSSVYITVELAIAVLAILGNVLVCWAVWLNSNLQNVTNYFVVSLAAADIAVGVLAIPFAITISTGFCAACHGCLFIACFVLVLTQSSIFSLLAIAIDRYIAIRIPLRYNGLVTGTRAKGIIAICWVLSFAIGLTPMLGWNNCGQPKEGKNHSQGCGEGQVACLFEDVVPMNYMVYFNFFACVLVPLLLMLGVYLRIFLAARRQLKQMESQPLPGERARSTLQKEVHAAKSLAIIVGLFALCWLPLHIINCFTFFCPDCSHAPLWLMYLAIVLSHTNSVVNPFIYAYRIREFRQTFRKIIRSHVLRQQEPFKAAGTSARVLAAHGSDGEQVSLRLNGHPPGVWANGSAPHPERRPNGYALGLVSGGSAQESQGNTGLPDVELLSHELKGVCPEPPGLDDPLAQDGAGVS
Muscarinic acetylcholine receptor M3, sequence (P20309 whole entry): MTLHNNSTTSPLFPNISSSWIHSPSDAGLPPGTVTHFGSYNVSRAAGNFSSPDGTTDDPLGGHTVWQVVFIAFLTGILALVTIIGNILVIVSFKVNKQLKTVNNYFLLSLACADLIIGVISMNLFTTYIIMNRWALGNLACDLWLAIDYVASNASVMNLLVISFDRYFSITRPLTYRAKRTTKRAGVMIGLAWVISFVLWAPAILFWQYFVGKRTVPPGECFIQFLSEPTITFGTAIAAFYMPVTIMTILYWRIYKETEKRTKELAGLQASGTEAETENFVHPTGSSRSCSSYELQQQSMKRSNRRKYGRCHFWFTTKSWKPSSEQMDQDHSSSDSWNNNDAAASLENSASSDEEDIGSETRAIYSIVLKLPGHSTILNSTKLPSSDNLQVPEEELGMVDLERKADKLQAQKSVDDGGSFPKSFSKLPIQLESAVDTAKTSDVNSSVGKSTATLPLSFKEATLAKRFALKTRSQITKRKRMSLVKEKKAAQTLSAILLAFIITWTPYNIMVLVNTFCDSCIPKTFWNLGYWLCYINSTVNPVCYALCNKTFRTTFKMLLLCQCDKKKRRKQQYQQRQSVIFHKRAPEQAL
Delta-type opioid receptor, sequence (P41143 whole entry): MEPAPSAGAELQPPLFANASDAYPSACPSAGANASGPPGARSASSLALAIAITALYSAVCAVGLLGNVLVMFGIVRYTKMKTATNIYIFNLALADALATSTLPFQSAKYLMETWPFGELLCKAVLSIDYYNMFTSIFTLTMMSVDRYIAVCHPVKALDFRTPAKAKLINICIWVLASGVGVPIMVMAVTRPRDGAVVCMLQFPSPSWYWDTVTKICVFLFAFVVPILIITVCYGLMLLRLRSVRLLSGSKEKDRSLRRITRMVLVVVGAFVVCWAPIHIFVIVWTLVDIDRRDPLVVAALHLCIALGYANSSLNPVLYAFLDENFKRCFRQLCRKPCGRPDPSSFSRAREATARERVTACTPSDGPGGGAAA
5-hydroxytryptamine receptor 2A, sequence (P28223 whole entry): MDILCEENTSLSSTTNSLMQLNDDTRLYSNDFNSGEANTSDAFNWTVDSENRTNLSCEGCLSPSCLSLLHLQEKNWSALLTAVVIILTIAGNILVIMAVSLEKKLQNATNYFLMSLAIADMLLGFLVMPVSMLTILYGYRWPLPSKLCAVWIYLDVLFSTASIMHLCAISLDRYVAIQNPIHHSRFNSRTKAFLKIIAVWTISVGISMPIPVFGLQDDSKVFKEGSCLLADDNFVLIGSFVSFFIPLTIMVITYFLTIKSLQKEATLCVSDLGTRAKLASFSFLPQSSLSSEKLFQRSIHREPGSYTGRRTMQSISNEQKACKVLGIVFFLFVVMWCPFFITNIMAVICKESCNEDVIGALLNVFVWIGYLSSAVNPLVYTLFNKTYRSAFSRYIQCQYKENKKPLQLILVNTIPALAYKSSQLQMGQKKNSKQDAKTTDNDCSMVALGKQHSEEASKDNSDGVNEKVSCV
Motilin receptor, sequence (O43193 whole entry): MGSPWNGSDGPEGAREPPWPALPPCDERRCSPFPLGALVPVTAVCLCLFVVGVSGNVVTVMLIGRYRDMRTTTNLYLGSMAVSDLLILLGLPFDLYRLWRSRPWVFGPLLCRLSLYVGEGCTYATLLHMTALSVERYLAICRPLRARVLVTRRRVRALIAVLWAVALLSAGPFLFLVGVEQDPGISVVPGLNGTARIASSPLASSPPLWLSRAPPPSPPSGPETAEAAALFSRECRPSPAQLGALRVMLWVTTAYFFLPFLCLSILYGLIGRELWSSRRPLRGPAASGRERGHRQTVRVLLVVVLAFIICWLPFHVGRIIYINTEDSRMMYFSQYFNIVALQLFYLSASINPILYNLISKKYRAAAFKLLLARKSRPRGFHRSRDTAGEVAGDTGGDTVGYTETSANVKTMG

Take `N#Cc1ccccc1-c1cc(-c2ccccn2)cn(-c2ccccc2)c1=O`: the AC50 (in assay [1]; on Motilin receptor; in assay [2]; on Adenosine receptor A2a; at Glucocorticoid receptor; on B2 bradykinin receptor) was above 30 µM each time. The AC50 (on Endothelin-1 receptor; in assay [3]; at Thromboxane A2 receptor; in assay [4]; in assay [5]; on Melanocortin receptor 3) was above 30 µM in each case. Moreover, the AC50 in assay [6] is above 30 µM.

Consider `N=C(N)NCCCCCCC(=O)NC(O)C(=O)NCCCCNCCCN` (configuration not stated), for which the AC50 (in assay [1]; on Motilin receptor; in [2]; at Adenosine receptor A2a; at Glucocorticoid receptor; at B2 bradykinin receptor) was above 30 µM each time. Besides, the AC50 (on Endothelin-1 receptor; in assay [3]; on Thromboxane A2 receptor; in [4]; in [5]; on Melanocortin receptor 3) was above 30 µM each time. For the same compound, the AC50 in assay [6] is above 30 µM.

In the case of `O=C(CCCN1CCC(n2c(O)nc3ccccc32)CC1)c1ccc(F)cc1` [BENPERIDOL], the AC50 was 26 µM at Motilin receptor; above 30 µM in assay [2]; above 30 µM at Adenosine receptor A2a; above 30 µM on Glucocorticoid receptor; above 30 µM on B2 bradykinin receptor; above 30 µM at Endothelin-1 receptor. Also, the AC50 in assay [3] is 8.6 µM; on Thromboxane A2 receptor it was above 30 µM; in assay [4] it was 12 µM; in [5] it was above 30 µM; on Melanocortin receptor 3 it was above 30 µM; in assay [6] it was 0.12 µM.

Regarding `Nc1nc(F)nc2c1ncn2[C@@H]1O[C@H](COP(=O)(O)O)[C@@H](O)[C@@H]1O` [FLUDARABINE PHOSPHATE], the AC50 (in assay [1]; at Motilin receptor; in assay [2]; on Adenosine receptor A2a; on Glucocorticoid receptor; at B2 bradykinin receptor) was above 30 µM in each case. Besides, the AC50 (in assay [3]; at Thromboxane A2 receptor; in assay [4]; in assay [5]; at Melanocortin receptor 3; in [6]) was above 30 µM each time.

For the compound `CC(=O)Nc1c(I)c(C(=O)N[C@H]2C(O)O[C@H](CO)[C@@H](O)[C@@H]2O)c(I)c(N(C)C(C)=O)c1I` (some centres not stated) [METRIZAMIDE], the AC50 (in assay [1]; at Motilin receptor; in [2]; at Adenosine receptor A2a; on Glucocorticoid receptor; at B2 bradykinin receptor) was above 10 µM each time. The AC50 in [3] is above 10 µM; on Thromboxane A2 receptor, above 10 µM; in [4] it was above 30 µM; in [5] it was above 30 µM; at Melanocortin receptor 3 it was above 10 µM; in assay [6], above 10 µM.

As to `CC(=O)O[C@H]1C[C@@H]2CC[C@@H]3[C@H](CC[C@@]4(C)[C@H]3C[C@H]([N+]3(C)CCCCC3)[C@@H]4OC(C)=O)[C@@]2(C)C[C@@H]1[N+]1(C)CCCCC1` [PANCURONIUM], the AC50 (in [1]; on Motilin receptor; in assay [2]; at Adenosine receptor A2a; at Glucocorticoid receptor; at B2 bradykinin receptor) was above 10 µM throughout. Moreover, the AC50 in assay [3] is above 10 µM; at Thromboxane A2 receptor, above 10 µM; in [4], above 30 µM; in assay [5], above 30 µM; at Melanocortin receptor 3, above 10 µM; in [6], above 10 µM.

Regarding `CC1(C)C(C=C(Cl)Cl)C1C(=O)OCc1cccc(Oc2ccccc2)c1` (configuration not stated) [PERMETHRIN], the AC50 in assay [1] is above 10 µM; at Motilin receptor it was above 10 µM; in assay [2], above 10 µM; at Adenosine receptor A2a it was above 10 µM; on Glucocorticoid receptor, above 30 µM; on B2 bradykinin receptor it was above 10 µM. For the same compound, the AC50 in assay [3] was above 10 µM; on Thromboxane A2 receptor, above 10 µM; in assay [4], above 30 µM; in [5] it was above 30 µM; on Melanocortin receptor 3, above 10 µM; in [6] it was above 10 µM.

For `NC(=O)CCC/N=C(\c1ccc(Cl)cc1)c1cc(F)ccc1O` [PROGABIDE], the AC50 (in assay [1]; on Motilin receptor; in assay [2]; at Adenosine receptor A2a; on Glucocorticoid receptor; on B2 bradykinin receptor) was above 10 µM in each case. Also, the AC50 in assay [3] is above 10 µM; on Thromboxane A2 receptor, above 10 µM; in [4] it was above 30 µM; in [5] it was above 30 µM; on Melanocortin receptor 3, above 10 µM; in assay [6], above 10 µM.

For `C=CC(N)CCC(=O)O` (configuration not stated) [VIGABATRIN], the AC50 (in [1]; on Motilin receptor; in [2]; at Adenosine receptor A2a; at Glucocorticoid receptor; on B2 bradykinin receptor) was above 10 µM in each case. The AC50 in [3] was above 10 µM; at Thromboxane A2 receptor it was above 10 µM; in [4] it was above 30 µM; in assay [5], above 30 µM; on Melanocortin receptor 3, above 10 µM; in assay [6] it was above 10 µM.

Regarding `N#C[C@@H]1CCCN1C(=O)CNC12CC3CC(CC(O)(C3)C1)C2` [VILDAGLIPTIN], the AC50 in [1] is above 30 µM; on Motilin receptor, above 10 µM; in assay [2], above 10 µM; at Adenosine receptor A2a it was above 30 µM; at Glucocorticoid receptor, above 30 µM; on B2 bradykinin receptor it was above 30 µM. In addition, the AC50 is above 10 µM in assay [3]; above 30 µM at Thromboxane A2 receptor; above 30 µM in [4]; above 30 µM in [5]; above 30 µM at Melanocortin receptor 3; above 30 µM in assay [6].
